From patent US8551721B2, “Bioluminescent detection of cyanohydroxy benzothiazole compounds” (Promega Corporation, priority 2008, dated 2013)

Legend:
Assay type in all cases: biochemical
[1] = target: T1, UGT 2B15 (Homo sapiens, UniProt P54855); test: UGT activity: utilization of substrate by recombinant UGT 2B15 Supersomes; conditions: 2 hour incubation at 37° C., plus vs minus UDPGA
T1 construct: purchased BD Gentest; host or cells: insect cells (microsomes)
T1 sequence (P54855 24-530): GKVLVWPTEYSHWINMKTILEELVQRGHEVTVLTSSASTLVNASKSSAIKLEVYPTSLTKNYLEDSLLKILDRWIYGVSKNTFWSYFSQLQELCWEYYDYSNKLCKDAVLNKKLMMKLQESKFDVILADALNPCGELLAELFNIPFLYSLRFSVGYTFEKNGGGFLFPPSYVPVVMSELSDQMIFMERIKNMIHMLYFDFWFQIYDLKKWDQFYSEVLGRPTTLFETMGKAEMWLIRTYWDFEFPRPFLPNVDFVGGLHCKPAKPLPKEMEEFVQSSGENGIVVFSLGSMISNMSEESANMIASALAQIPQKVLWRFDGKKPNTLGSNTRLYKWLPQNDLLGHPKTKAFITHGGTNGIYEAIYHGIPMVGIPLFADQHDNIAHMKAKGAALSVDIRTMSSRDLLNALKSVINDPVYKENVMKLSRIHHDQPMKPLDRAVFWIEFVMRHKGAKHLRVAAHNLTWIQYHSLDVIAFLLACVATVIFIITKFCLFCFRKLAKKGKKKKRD
Experimental: (§1) The invention includes a method of determining activity of the uridine 5′-diphospho-glucuronosyltransferase (UDP-glucuronosyltransferase, or UGT) family enzymes in vitro. Briefly, UGT enzymes from overexpressed insect microsomes (Supersomes™, BD Gentest™) or animal tissue microsomes (Xenotech, BD Gentest™) were incubated with a cyanobenzothiazole substrate of the invention and the cofactor UDP-glucuronic acid (UDPGA) at 37° C. in buffer at physiological pH containing MgCl2 and alamethicin (typically, 50 mM TES, pH 7.5, 8 mM MgCl2, 4 mM UDPGA (Sigma) and 25 μg/mL alamethicin (Sigma)). Following the UGT enzyme reaction, an equal volume of P450-Glo Luciferin Detection Reagent (Promega) containing 15-30 mM D-cysteine-HCl.H2O (Sigma) was added and the plate was mixed and incubated at room temperature, typically for 20-30 minutes. […]
(§2) During this incubation, the cysteine reacts with the cyanobenzathiozole substrate to yield a D-luciferin derivative. […] Therefore, activity of the UGT enzyme can be measured by analyzing the difference (lower or no output) in relative light units (RLU) of a sample in which glucuronidation occurs compared to a sample that was run under the same conditions with no added UDPGA cofactor. […]
(§3) Reactions were assembled in a white 96-well plate. […] After the incubation was completed, the plate was read on a Veritas™ luminometer (Turner BioSystems, Inc.; Sunnyvale, Calif.). […]

[2] = target: T2, UGT 2B7 (Homo sapiens, UniProt P16662); test: UGT activity: utilization of substrate by recombinant UGT 2B7 Supersomes; conditions: 2 hour incubation at 37° C., plus vs minus UDPGA, background corrected
T2 construct: purchased BD Gentest; host or cells: insect cells (microsomes)
T2 sequence (P16662 24-529): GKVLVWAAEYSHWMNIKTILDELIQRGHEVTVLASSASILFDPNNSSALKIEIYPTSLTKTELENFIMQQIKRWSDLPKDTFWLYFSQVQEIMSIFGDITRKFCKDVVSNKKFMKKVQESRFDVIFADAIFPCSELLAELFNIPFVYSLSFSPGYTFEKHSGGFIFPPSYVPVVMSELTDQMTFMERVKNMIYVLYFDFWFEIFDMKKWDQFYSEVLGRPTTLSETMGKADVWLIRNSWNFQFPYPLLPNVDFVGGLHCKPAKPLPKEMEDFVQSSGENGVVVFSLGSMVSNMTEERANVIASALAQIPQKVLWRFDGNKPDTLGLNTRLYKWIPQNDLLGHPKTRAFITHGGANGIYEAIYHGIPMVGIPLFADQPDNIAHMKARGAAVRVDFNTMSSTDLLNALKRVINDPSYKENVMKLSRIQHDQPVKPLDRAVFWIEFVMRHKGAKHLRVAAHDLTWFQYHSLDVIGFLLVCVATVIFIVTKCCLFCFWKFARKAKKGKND
Experimental: as §1, §2, §3

[3] = target: T3, UGT 1A10 (Homo sapiens, UniProt Q9HAW8); test: UGT activity: utilization of substrate by recombinant UGT 1A10 Supersomes; conditions: 2 hour incubation at 37° C., plus vs minus UDPGA, background corrected
T3 construct: purchased BD Gentest; host or cells: insect cells (microsomes)
T3 sequence (Q9HAW8 26-530): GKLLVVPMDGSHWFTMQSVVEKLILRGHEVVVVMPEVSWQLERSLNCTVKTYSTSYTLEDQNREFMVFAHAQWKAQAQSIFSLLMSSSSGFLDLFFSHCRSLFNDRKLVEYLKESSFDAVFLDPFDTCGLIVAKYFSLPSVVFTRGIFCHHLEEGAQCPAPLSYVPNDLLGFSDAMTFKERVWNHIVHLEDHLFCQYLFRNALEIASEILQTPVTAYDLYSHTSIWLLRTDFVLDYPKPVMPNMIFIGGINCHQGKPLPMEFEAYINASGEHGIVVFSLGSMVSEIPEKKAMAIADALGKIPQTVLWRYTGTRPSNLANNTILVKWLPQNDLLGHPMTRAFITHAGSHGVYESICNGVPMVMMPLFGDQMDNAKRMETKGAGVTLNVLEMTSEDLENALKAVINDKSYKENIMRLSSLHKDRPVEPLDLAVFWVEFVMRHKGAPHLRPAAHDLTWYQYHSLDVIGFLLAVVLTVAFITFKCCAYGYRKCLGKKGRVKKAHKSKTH
Experimental: as §1, §2, §3

SMILES	utilization by UGT 2B15 (in words) [1]	% utilization by UGT 2B7 [2]	% utilization by UGT 1A10 [3]
Cc1cc(O)cc2sc(C#N)nc12 [compound 3138]	detectable levels of utilization above background	over 50%	over 50%
Cc1cc(O)cc2sc(C3=NC(C(=O)O)CS3)nc12 (stereo not drawn) [compound 3478]	only UGT 1A6 was able to utilize compound 3478 to any appreciable extent	≤ 15%	≤ 15%
